Key:
Balb/c mice [1] = test: Body weight during 21-day acute toxicity study; assay type: in vivo; details: 50 mg/kg BW sc 3×/week for 3 weeks, n=6
Procedure: (§1) This study used 5- to 7-week-old male and female Balb/c (Jackson Laboratories) mice. The mice were housed in standard mouse shoe-box cages and maintained in a 12-hr light/12-hr dark cycle, with 50% humidity and 20 ± 3 °C. The mice had free access to a standard pellet diet (Certified PicoLab® Rodent Diet 20, Lab Diet) and water ad libitum. The study was conducted in accordance with the guidelines of the Nova Southeastern University (NSU) Institutional Animal Care and Use Committee (NSU IACUC protocol 2019.12.DM4).
The animals were divided into four groups with each group containing six mice (three male and three female). Group 1: non-treated control mice; Group 2: animals were treated with a vehicle control (10%/90% DMSO/sterile water, USP sterile injectable grade) for 21 days; Group 3: animals were treated with 2155-14 (50 mg/kg body weight) for 21 days; and Group 4: animals were treated with 2155-18 (50 mg/kg body weight) for 21 days three times/week. Compounds (2155-14 and 2155-18) were freshly prepared in 10% DMSO/H2O (both USP injectable grade) for each treatment day. […]
(§2) Statistical significance was set at p < 0.05. All data were analyzed using one-way ANOVA to compare means, and significant differences were further analyzed by Tukey’s multiple comparisons using Prism (version 8.0, GraphPad Inc., San Diego, CA, USA).

melanoma cells = details: in vitro; read-out: IC50, inhibition of viability of melanoma cells; cited from earlier work
Balb/c mice [2] = test: Complete blood count (CBC) after 21-day acute toxicity study; assay type: in vivo; details: 50 mg/kg bw sc 3×/week for 21 days; for Eosinohils / Monocytes / WBC / RBC / Segmented Neutrophils / Hgb / MCH / MCHC / HCT / Lymphocytes / MCV / Platelets: mean ± SD; for Eosinohils: n=6, reference range 0.11–4.91; for Monocytes: n=6, reference range 3.29–12.48; for WBC: n=6, reference range 3.48–14.03; for RBC: n=6, reference range 6.93–12.24; for Segmented Neutrophils: n=6, reference range 9.86–39.11; for Hgb: n=6, reference range 12.6–20.5; for MCH: n=6, reference range 13.2–17.6; for MCHC: n=6, reference range 23.3–32.7; for HCT: n=6, reference range 42.1–68.3; for Lymphocytes: n=6, reference range 48.81–83.19; for MCV: n=6, reference range 50.7–64.4; for Platelets: n=6, reference range 420–1698; for Banded Neutrophils: n=6, reference range 0–1; for Basophils: n=6, reference range 0–1.84
Procedure: as §1
(§3) The animals were divided into four groups with each group containing six mice (three male and three female). Group 1: non-treated control mice; Group 2: animals were treated with a vehicle control (10%/90% DMSO/sterile water, USP sterile injectable grade) for 21 days; Group 3: animals were treated with 2155-14 (50 mg/kg body weight) for 21 days; and Group 4: animals were treated with 2155-18 (50 mg/kg body weight) for 21 days three times/week. Compounds (2155-14 and 2155-18) were freshly prepared in 10% DMSO/H2O (both USP injectable grade) for each treatment day. Both 2155-14 and 2155-18 were weighed into autoclaved 1.5 mL Eppendorf vials using analytical scales. USP grade DMSO was added to each vial under aseptic conditions and vortexed. USP grade injectable sterile H2O was then added to each vial and again vortexed. Next, 1 mL insulin syringes with a 26-gauge needle were filled with 0.2 mL of the compound and delivered to the vivarium in the closed carrier for animal treatment. For the vehicle control group, syringes were filled with 0.2 mL of 10% DMSO/H2O (USP injectable grade).
(§4) All mice were euthanized after 21 days by CO2 overdose. Whole blood samples were collected via cardiocentesis with a 25-gauge needle immediately after euthanasia. Blood samples were collected in MiniCollect® Serum and Plasma Tubes containing either K3EDTA or lithium heparin for CBC and blood chemistry, respectively. Blood smears were prepared from whole blood and analyzed for the morphological changes of blood cells under the microscope.
(§5) The heart, lungs, stomach, intestines, pancreas, spleen, kidney with adrenal, liver, and brain were collected and placed in 10% neutral buffered formalin for histopathology. The tissues were processed via standard tissue processing to produce H&E slides. All H&E slides were reviewed blind to the treatment group. Tissues were evaluated for the presence of inflammation, degeneration, signs of toxicity, and any other abnormalities. CBC, blood chemistry, and histopathology analyses were performed at the Division of Comparative Pathology, University of Miami.
as §2

Balb/c mice [3] = test: Histopathology of organs (H&E) after 21-day acute toxicity study; assay type: in vivo; details: 50 mg/kg sc, 21 days
Procedure: as §3
(§6) The heart, lungs, stomach, intestines, pancreas, spleen, kidney with adrenal, liver, and brain were collected and placed in 10% neutral buffered formalin for histopathology. […] Tissues were evaluated for the presence of inflammation, degeneration, signs of toxicity, and any other abnormalities. […]

primary melanocytes = details: in vitro; cited from earlier work
[4] = system: various cell types (liver, lung, breast, brain, skin, ovary, primary melanocytes, primary keratinocytes); details: in vitro, tested up to 100 µM; cited from earlier work
Balb/c mice [5] = test: Overall acute toxicity after sc administration; assay type: in vivo; details: 50 mg/kg sc, 21 days
Procedure: as §1
The animals were divided into four groups with each group containing six mice (three male and three female). […]
All mice were euthanized after 21 days by CO2 overdose. […] Blood smears were prepared from whole blood and analyzed for the morphological changes of blood cells under the microscope.
as §6

Balb/c mice [6] = test: Blood chemistry after 21-day acute toxicity study; assay type: in vivo; details: 50 mg/kg bw sc 3×/week for 21 days, mean ± SD; for Creatinine: n=6, reference range 0.2–0.4; for Total protein: n=6, reference range 4.6–8.9; for BUN: n=6, reference range 7.0–26; for Phosphorus: n=6, reference range 8.2–14.7; for Calcium: n=6, reference range 9.4–12.5; for Glucose: n=6, reference range 129–329
Procedure: as §1, §3, §4, §5, §2

| Compound | Change in body weight versus control groups (Balb/c mice [1]) | IC50 (melanoma cells) [µM] | Eosinohils (Balb/c mice [2]) [%] | Monocytes (Balb/c mice [2]) [%] | WBC (Balb/c mice [2]) [K/µL] | RBC (Balb/c mice [2]) [M/µL] | Segmented Neutrophils (Balb/c mice [2]) [%] | Hgb (Balb/c mice [2]) | MCH (Balb/c mice [2]) [pg] | MCHC (Balb/c mice [2]) [g/dL] | HCT (Balb/c mice [2]) [%] | Lymphocytes (Balb/c mice [2]) [%] | MCV (Balb/c mice [2]) [fL] | Platelets (Balb/c mice [2]) [K/µL] | Banded Neutrophils (Balb/c mice [2]) [%] | Basophils (Balb/c mice [2]) [%] | Histopathological examination of hearts and livers (Balb/c mice [3]) | Effect on viability of primary melanocytes (primary melanocytes) | TC50, toxicity against various cell types [4] [µM] | Acute toxicity after sc administration (Balb/c mice [5]) | further results |
| --- | --- | --- | --- | --- | --- | --- | --- | --- | --- | --- | --- | --- | --- | --- | --- | --- | --- | --- | --- | --- | --- |
| O=C1NC[C@H](Cc2ccccc2)N(C[C@@H]2CCCN2C[C@@H](CC2CCCCC2)N2C[C@H](Cc3ccc(O)cc3)N(CCc3ccccc3)C(=O)C2=O)C1=O [Compound 2155-14] | No significant changes in body weight | 0.5 to 10 | 0.5 ± 1.2 | 4.25 ± 4.27 | 5.1 ± 1.6 | 10.6 ± 2.1 | 18.8 ± 8.0 | 14.1 ± 1.6 g/dL | 14 ± 2.3 | 23 ± 5.1 | 61.1 | 78.3 ± 7.5 | 61 ± 2.2 | 542 ± 95 | 0 | 0 | no adverse effects | do not have an effect on the viability of primary melanocytes | > 100 | lack of acute toxicity | Creatinine (Balb/c mice [6]): * 0.44 ± 0.19 mg/dL; Total protein (Balb/c mice [6]): 7.1 ± 0.6 g/dL; BUN (Balb/c mice [6]): 18.3 ± 2.5 mg/dL; Phosphorus (Balb/c mice [6]): 13.6 ± 0.4 mg/dL; Calcium (Balb/c mice [6]): 9.1 ± 0.85 mg/dL; Glucose (Balb/c mice [6]): 181 ± 25.7 mg/dL |
| O=C1NC[C@H](Cc2ccccc2)N(C[C@@H]2CCCN2C[C@H](Cc2ccccc2)N2C[C@H](Cc3ccc(O)cc3)N(CCC34CC5CC(CC(C5)C3)C4)C(=O)C2=O)C1=O [Compound 2155-18] | No significant changes in body weight | 0.5 to 10 | 2 ± 1 | 6.7 ± 2.3 | 4.2 ± 2.7 | 7.9 ± 1.4 | 24.7 ± 10.9 | * 11.9 ± 1.6 g/dL | 14.7 ± 0.57 | 25.3 ± 0.58 | 46.9 ± 6.4 | 70.7 ± 11.3 | 59.3 ± 2.1 | 741 ± 305 | 0 | 0 | no adverse effects | do not have an effect on the viability of primary melanocytes | > 100 | lack of acute toxicity | Creatinine (Balb/c mice [6]): * 0.46 ± 0.11 mg/dL; Total protein (Balb/c mice [6]): 6.7 ± 0.48 g/dL; BUN (Balb/c mice [6]): 16.7 ± 1.6 mg/dL; Phosphorus (Balb/c mice [6]): * 15.3 ± 0.25 mg/dL; Calcium (Balb/c mice [6]): 8.7 ± 0.75 mg/dL; Glucose (Balb/c mice [6]): 212 ± 50.5 mg/dL |
